Test results as given in patent US20080161320A1, “FUSED BICYCLIC PYRIMIDINES AS PTK INHIBITORS CONTAINING A ZINC BINDING MOIETY” (priority 2006, published 2008).

What was measured:
human VEGFR2 = human VEGFR2 (Homo sapiens, UniProt P35968); assay: HTScan Receptor Kinase Assay, VEGFR2;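 note: recombinant GST-His-tagged human VEGFR2 kinase domain phosphorylating biotinylated gastrin precursor peptide, 30 min at room temperature, phosphotyrosine detected by Europium-labelled antibody time-resolved fluorescence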
Chain of human VEGFR2 (P35968 807-1356 limits assumed): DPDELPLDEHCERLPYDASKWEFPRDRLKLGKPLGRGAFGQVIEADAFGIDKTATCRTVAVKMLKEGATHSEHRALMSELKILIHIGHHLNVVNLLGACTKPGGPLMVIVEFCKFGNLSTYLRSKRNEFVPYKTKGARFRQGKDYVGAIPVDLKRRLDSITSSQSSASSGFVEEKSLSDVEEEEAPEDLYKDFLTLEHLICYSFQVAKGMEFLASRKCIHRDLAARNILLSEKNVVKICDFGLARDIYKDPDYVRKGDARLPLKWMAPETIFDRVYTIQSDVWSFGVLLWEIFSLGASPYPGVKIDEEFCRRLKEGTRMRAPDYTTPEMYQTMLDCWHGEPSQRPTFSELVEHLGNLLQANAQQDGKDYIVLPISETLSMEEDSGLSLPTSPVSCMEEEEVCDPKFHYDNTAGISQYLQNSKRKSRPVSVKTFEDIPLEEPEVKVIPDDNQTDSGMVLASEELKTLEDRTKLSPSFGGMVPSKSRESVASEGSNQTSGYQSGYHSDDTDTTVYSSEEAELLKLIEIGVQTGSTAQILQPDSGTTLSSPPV
Description: (§1) The ability of compounds to inhibit receptor kinase (EGFR, HER2/ErbB2, and VEGFR2) activity was assayed using HTScan™ Receptor Kinase Assay Kits (Cell Signaling Technologies, Danvers, Mass.). […] VEGFR2 tyrosine kinase was produced using a baculovirus expression system from a construct containing a human VEGFR2 cDNA kinase domain (Asp805-Val1356) (GenBank accession No. AF035121) fragment amino-terminally fused to a GST-HIS6-Thrombin cleavage site. The proteins were purified by one-step affinity chromatography using glutathione-agarose. An anti-phosphotyrosine monoclonal antibody, P-Tyr-100, was used to detect phosphorylation of biotinylated substrate peptides (EGFR, Biotin-PTP1B (Tyr66); HER2/ErbB2, Biotinylated FLT3 (Tyr589); VEGFR2, Biotin-Gastrin Precursor (Tyr87).). […] Fluorescence was measured on a WALLAC Victor 2 plate reader and reported as relative fluorescence units (RFU). Data were plotted using GraphPad Prism (v4.0a) and IC50's calculated using a sigmoidal dose response curve fitting algorithm.
(§2) Each assay was setup as follows: Added 100 μl of 10 mM ATP to 1.25 ml 6 mM substrate peptide. Diluted the mixture with dH20 to 2.5 ml to make 2×ATP/substrate cocktail ([ATP]=400 mM, [substrate]=3 mM). Immediately transfer enzyme from −80° C. to ice. Allowed enzyme to thaw on ice. Microcentrifuged briefly at 4° C. to bring liquid to the bottom of the vial. Returned immediately to ice. […] Transfer 1.25 ml of DTT/Kinase buffer to enzyme tube to make 4× reaction cocktail ([enzyme]=4 ng/μL in 4× reaction cocktail). […] Incubated reaction plate at room temperature for 30 minutes. Added 50 μl/well Stop Buffer (50 mM EDTA, pH 8) to stop the reaction. Transferred 25 μl of each reaction and 75 μl dH2O/well to a 96-well streptavidin-coated plate and incubated at room temperature for 60 minutes. Washed three times with 200 μl/well PBS/T (PBS, 0.05% Tween-20). […] Added 100 μl/well primary antibody. Incubated at room temperature for 60 minutes. Washed three times with 200 μl/well PBS/T. Diluted Europium labeled anti-mouse IgG 1:500 in PBS/T with 1% BSA. Added 100 μl/well diluted antibody. Incubated at room temperature for 30 minutes. Washed five times with 200 μl/well PBS/T. Added 100 μl/well DELFIA® Enhancement Solution. Incubated at room temperature for 5 minutes.

human EGFR = biological target: T1, human EGFR (Homo sapiens, UniProt P00533); assay: HTScan Receptor Kinase Assay, EGFR; format: biochemical
T1 construct: human EGFR (His672-Ala1210); GST (N); purchased Cell Signaling Technologies; host or cells: baculovirus expression system
T1 sequence (P00533 672-1210): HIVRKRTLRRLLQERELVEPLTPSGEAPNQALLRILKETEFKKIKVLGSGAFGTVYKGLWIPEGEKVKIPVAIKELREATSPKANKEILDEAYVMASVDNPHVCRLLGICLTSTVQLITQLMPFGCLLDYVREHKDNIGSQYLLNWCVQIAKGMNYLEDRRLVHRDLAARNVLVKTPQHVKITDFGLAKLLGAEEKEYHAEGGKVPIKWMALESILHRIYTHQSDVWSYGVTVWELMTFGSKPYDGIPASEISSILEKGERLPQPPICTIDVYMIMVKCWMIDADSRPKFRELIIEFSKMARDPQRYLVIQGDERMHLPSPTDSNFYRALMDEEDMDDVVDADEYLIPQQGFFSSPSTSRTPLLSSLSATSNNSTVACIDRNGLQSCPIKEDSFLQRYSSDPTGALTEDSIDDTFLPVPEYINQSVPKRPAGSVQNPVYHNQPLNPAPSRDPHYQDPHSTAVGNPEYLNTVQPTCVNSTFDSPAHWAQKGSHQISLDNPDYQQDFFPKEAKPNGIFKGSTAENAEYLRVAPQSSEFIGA

HDAC = HDAC fluorimetric assay kit (AK-500, Biomol), HeLa nuclear extract; format: biochemical
Description: HDAC inhibitors were screened using an HDAC fluorimetric assay kit (AK-500, Biomol, Plymouth Meeting, Pa.). […] Each assay was setup as follows: Defrosted all kit components and kept on ice until use. […] Prepared dilutions of Trichostatin A (TSA, positive control) and tested compounds in assay buffer (5× of final concentration). Diluted Fluor de Lys™ Substrate in assay buffer to 100 uM (50 fold=2× final). Diluted Fluor de Lys™ developer concentrate 20-fold (e.g. 50 μl plus 950 μl Assay Buffer) in cold assay buffer. Second, diluted the 0.2 mM Trichostatin A 100-fold in the 1× Developer (e.g. 10 μl in 1 ml; final Trichostatin A concentration in the 1× Developer=2 μM; final concentration after addition to HDAC/Substrate reaction=1 μM). Added Assay buffer, diluted trichostatin A or test inhibitor to appropriate wells of the microtiter plate. Added diluted HeLa extract or other HDAC sample to all wells except for negative controls.

human HER2/ErbB2 = human HER2/ErbB2 (Homo sapiens, UniProt P04626); assay: HTScan Receptor Kinase Assay, HER2/ErbB2;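 note: europium time-resolved fluorescence detection of anti-phosphotyrosine antibody binding to biotinylated FLT3 (Tyr589) peptide phosphorylated by the kinase, 30 min reaction at room temperature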
Chain of human HER2/ErbB2 (P04626 676-1255): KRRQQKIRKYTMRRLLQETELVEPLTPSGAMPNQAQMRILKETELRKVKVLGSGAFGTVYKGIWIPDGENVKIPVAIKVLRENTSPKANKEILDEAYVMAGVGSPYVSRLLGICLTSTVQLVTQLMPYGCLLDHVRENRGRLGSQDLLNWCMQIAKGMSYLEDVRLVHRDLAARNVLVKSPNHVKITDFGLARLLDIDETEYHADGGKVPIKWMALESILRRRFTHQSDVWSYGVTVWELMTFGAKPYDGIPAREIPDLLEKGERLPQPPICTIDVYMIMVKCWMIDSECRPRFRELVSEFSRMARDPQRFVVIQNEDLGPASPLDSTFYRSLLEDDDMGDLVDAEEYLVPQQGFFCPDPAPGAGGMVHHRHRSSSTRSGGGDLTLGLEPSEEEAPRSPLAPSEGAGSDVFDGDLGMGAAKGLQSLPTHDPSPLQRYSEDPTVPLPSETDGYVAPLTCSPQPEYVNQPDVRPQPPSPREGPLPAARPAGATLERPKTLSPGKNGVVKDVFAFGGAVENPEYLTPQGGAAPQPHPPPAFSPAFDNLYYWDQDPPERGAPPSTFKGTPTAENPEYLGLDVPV
Description: as §1, §2

Row | SMILES | IC50 (human VEGFR2) | IC50 (human EGFR) | IC50 (HDAC) | IC50 (human HER2/ErbB2) | melting point
1 | C[C@@H](Nc1ncnc2[nH]c(-c3ccc(NCc4ccc(/C=C/C(=O)NO)cc4)cc3)cc12)c1ccccc1 [Compound 42, (R,E)-N-Hydroxy-3-(4-((4-(4-(1-phenylethylamino)-7H-pyrrolo[2,3-d]pyrimidin-6-yl)phenylamino)methyl)phenyl)acrylamide] | 1000 to 10000 nM | < 100 nM | 100 to 1000 nM | 1000 to 10000 nM | 
2 | C[C@@H](Nc1ncnc2[nH]c(-c3ccc(C(=O)NCCNCCCCCCC(=O)NO)cc3)cc12)c1ccccc1 [Compound 31, (R)—N-(2-(7-(Hydroxyamino)-7-oxoheptylamino)ethyl)-4-(4-(1-phenylethylamino)-7H-pyrrolo[2,3-d]pyrimidin-6-yl)benzamide] | 100 to 1000 nM | < 100 nM | < 100 nM | 100 to 1000 nM | 
3 | C[C@@H](Nc1ncnc2[nH]c(-c3ccc(C(=O)NO)cc3)cc12)c1ccccc1 [Compound 39, (R)—N-hydroxy-4-(4-(1-phenylethylamino)-7H-pyrrolo[2,3-d]pyrimidin-6-yl)benzamide] | 100 to 1000 nM | < 100 nM | 100 to 1000 nM | < 100 nM | 
4 | C[C@@H](Nc1ncnc2[nH]c(-c3ccc(NC(=O)CCCCCCC(=O)NO)cc3)cc12)c1ccccc1 [Compound 27, (R)—N^1-Hydroxy-N^8-(4-(4-(1-phenylethylamino)-7H-pyrrolo[2,3-d]pyrimidin-6-yl)phenyl)octanediamide] | 100 to 1000 nM | < 100 nM | < 100 nM | 100 to 1000 nM | 
5 | C[C@@H](Nc1ncnc2[nH]c(-c3ccc(OCCCCC(=O)NO)cc3)cc12)c1ccccc1 [Compound 20, (R)—N-Hydroxy-5-(4-(4-(1-phenylethylamino)-7H-pyrrolo[2,3-d]pyrimidin-6-yl)phenoxy)pentanamide] | 100 to 1000 nM | < 100 nM | 100 to 1000 nM | 100 to 1000 nM | 
6 | C[C@@H](Nc1ncnc2[nH]c(-c3ccc(CNCCCCCCC(=O)NO)cc3)cc12)c1ccccc1 [Compound 33, (R)—N-hydroxy-7-(4-(4-(1-phenylethylamino)-7H-pyrrolo[2,3-d]pyrimidin-6-yl)benzylamino)heptanamide] | 100 to 1000 nM | < 100 nM | < 100 nM | 100 to 1000 nM | 
7 | C[C@@H](Nc1ncnc2[nH]c(-c3ccc(C(=O)NO)cc3)cc12)c1ccc(F)cc1 [Compound 41] | 100 to 1000 nM | < 100 nM | 100 to 1000 nM | 100 to 1000 nM | 
8 | C[C@@H](Nc1ncnc2[nH]c(-c3ccc(OCCCC(=O)NO)cc3)cc12)c1ccccc1 [Compound 19, (R)—N-Hydroxy-4-(4-(4-(1-phenylethylamino)-7H-pyrrolo[2,3-d]pyrimidin-6-yl)phenoxy)propanamide] | 100 to 1000 nM | < 100 nM | 100 to 1000 nM | 100 to 1000 nM | 
9 | C[C@@H](Nc1ncnc2[nH]c(-c3ccc(NC(=O)CCC(=O)NO)cc3)cc12)c1ccccc1 [Compound 24, (R) —N^1-Hydroxy-N^4-(4-(4-(1-phenylethylamino)-7H-pyrrolo[2,3-d]pyrimidin-6-yl)phenyl)succinamide] | 100 to 1000 nM | < 100 nM | > 10000 nM | 100 to 1000 nM | 
10 | C[C@@H](Nc1ncnc2[nH]c(-c3ccc(NCCCCCCC(=O)NO)cc3)cc12)c1ccccc1 [Compound 67, (R)—N-hydroxy-7-(4-(4-(1-phenylethylamino)-7H-pyrrolo[2,3-d]pyrimidin-6-yl)phenylamino)heptanamide] | 100 to 1000 nM | < 100 nM | < 100 nM | < 100 nM | 
11 | C[C@@H](Nc1ncnc2[nH]c(-c3ccc(OCCCCCCC(=O)NO)cc3)cc12)c1ccccc1 [Compound 22, (R)—N-hydroxy-7-(4-(4-(1-phenylethylamino)-7H-pyrrolo[2,3-d]pyrimidin-6-yl)phenoxy)heptanamide] | < 100 nM | < 100 nM | < 100 nM | 100 to 1000 nM | 
12 | C[C@@H](Nc1ncnc2[nH]c(-c3ccc(NCc4ccc(C(=O)NO)cc4)cc3)cc12)c1ccccc1 [Compound 43, (R)—N-Hydroxy-4-((4-(4-(1-phenylethylamino)-7H-pyrrolo[2,3-d]pyrimidin-6-yl)phenylamino)methyl)benzamide] | 1000 to 10000 nM | < 100 nM | 100 to 1000 nM | 100 to 1000 nM | 
13 | C[C@@H](Nc1ncnc2[nH]c(-c3ccc(C(=O)NCCNCCCCCC(=O)NO)cc3)cc12)c1ccccc1 [Compound 30, (R)—N-(2-(6-(Hydroxyamino)-6-oxohexylamino)ethyl)-4-(4-(1-phenylethylamino)-7H-pyrrolo[2,3-d]pyrimidin-6-yl)benzamide] | 100 to 1000 nM | < 100 nM | 100 to 1000 nM | 100 to 1000 nM | 
14 | C[C@@H](Nc1ncnc2[nH]c(-c3ccc(OCC(=O)NO)cc3)cc12)c1ccccc1 [Compound 17, (R)—N-hydroxy-2-(4-(4-(1-phenylethylamino)-7H-pyrrolo[2,3-d]pyrimidin-6-yl)phenoxy)acetamide] | 1000 to 10000 nM | < 100 nM | < 100 nM | < 100 nM | 116.8 to 126.8 °C
15 | O=C(CCCCCN1CCN(Cc2ccc(-c3cc4c(NCc5ccccc5)ncnc4[nH]3)cc2)CC1)NO [Compound 36] | 100 to 1000 nM | 100 to 1000 nM | 100 to 1000 nM | 100 to 1000 nM | 
16 | C[C@@H](Nc1ncnc2[nH]c(-c3ccc(CN4CCN(CCCCCCC(=O)NO)CC4)cc3)cc12)c1ccccc1 [Compound 16, (R)—N-Hydroxy-7-(4-(4-(4-(1-phenylethylamino)-7H-pyrrolo[2,3-d]pyrimidin-6-yl)benzyl)piperazin-1-yl)heptanamide] | 100 to 1000 nM | < 100 nM | 100 to 1000 nM | < 100 nM | 
17 | C[C@@H](Nc1ncnc2[nH]c(-c3ccc(CN4CCN(CC(=O)NO)CC4)cc3)cc12)c1ccccc1 [Compound 11, (R)—N-Hydroxy-2-(4-(4-(4-(1-phenylethylamino)-7H-pyrrolo[2,3-d]pyrimidin-6-yl)benzyl)piperazin-1-yl)acetamide] | < 100 nM | < 100 nM | > 10000 nM | < 100 nM | 
18 | C[C@@H](Nc1ncnc2[nH]c(-c3ccc(OCCCCCCC(=O)NO)cc3)cc12)c1ccc(F)cc1 [Compound 37] | 1000 to 10000 nM | 100 to 1000 nM | < 100 nM | 100 to 1000 nM | 
19 | C[C@@H](Nc1ncnc2[nH]c(-c3ccc(CN4CCN(CCCC(=O)NO)CC4)cc3)cc12)c1ccccc1 [Compound 13, (R)—N-Hydroxy-4-(4-(4-(4-(1-phenylethylamino)-7H-pyrrolo[2,3-d]pyrimidin-6-yl)benzyl)piperazin-1-yl)butanamide] | 100 to 1000 nM | < 100 nM | 1000 to 10000 nM | < 100 nM | 
20 | C[C@@H](Nc1ncnc2[nH]c(-c3ccc(CNCCCCCC(=O)NO)cc3)cc12)c1ccccc1 [Compound 32, (R)—N-hydroxy-6-(4-(4-(1-phenylethylamino)-7H-pyrrolo[2,3-d]pyrimidin-6-yl)benzylamino)hexanamide] | 100 to 1000 nM | < 100 nM | 100 to 1000 nM | 100 to 1000 nM | 
21 | C[C@@H](Nc1ncnc2[nH]c(-c3ccc(NC(=O)CCCCC(=O)NO)cc3)cc12)c1ccccc1 [Compound 26, (R) —N^1-Hydroxy-N^6-(4-(4-(1-phenylethylamino)-7H-pyrrolo[2,3-d]pyrimidin-6-yl)phenyl)adipamide] | 100 to 1000 nM | < 100 nM | < 100 nM | 100 to 1000 nM | 
